Where two headings read alike, the source gives them in different places.
Experiments:
Format in all cases: cell-based
AKT2 = molecular target: T1, AKT2 (Homo sapiens, UniProt P31751); test: Live cell AKT2 target engagement by NanoBRET competitive probe displacement; conditions: HEK293 cells transfected with kinase-NanoLuciferase fusion, 2 h at 37° C.
T1 construct: expressed in transfected cells; host or cells: HEK293
Procedure, shortened: (§1)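 Luminescence ratio 600/460 nm served as readout after HEK293 cells bearing transiently expressed kinase–NanoLuciferase fusions were exposed 2 h at 37 °C to test compound alongside an ATP-competitive fluorescent tracer near EC50. Extracellular signal was quenched by a luciferase inhibitor.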

AKT1 WT = molecular target: T2, AKT1 WT (Homo sapiens, UniProt P31749); test: Live cell AKT1 WT target engagement by NanoBRET competitive probe displacement; conditions: HEK293 cells transfected with kinase-NanoLuciferase fusion, 2 h at 37° C.
T2 construct: expressed in transfected cells; host or cells: HEK293
Procedure, shortened: as §1

[1] = system: LAPC4 prostate cancer cells; test: Antiproliferative effects in LAPC4 cells (CellTiter Glo); conditions: LAPC4 cells (AKT1 E17K allele), read-out: LAPC4 proliferation IC50
Procedure, shortened: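 IC50 values reflect 72 h compound treatment of cells plated at 1,000 per well, with CellTiter Glo luminescence as the viability read-out.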

AKT1 E17K = molecular target: T3, AKT1 E17K (Homo sapiens, UniProt P31749, E17K); test: Live cell AKT1 E17K target engagement by NanoBRET competitive probe displacement; conditions: HEK293 cells transfected with kinase-NanoLuciferase fusion, 2 h at 37° C.
T3 construct: expressed in transfected cells; host or cells: HEK293
Procedure, shortened: as §1

T2 sequence (P31749 whole entry, the tested form may be a part): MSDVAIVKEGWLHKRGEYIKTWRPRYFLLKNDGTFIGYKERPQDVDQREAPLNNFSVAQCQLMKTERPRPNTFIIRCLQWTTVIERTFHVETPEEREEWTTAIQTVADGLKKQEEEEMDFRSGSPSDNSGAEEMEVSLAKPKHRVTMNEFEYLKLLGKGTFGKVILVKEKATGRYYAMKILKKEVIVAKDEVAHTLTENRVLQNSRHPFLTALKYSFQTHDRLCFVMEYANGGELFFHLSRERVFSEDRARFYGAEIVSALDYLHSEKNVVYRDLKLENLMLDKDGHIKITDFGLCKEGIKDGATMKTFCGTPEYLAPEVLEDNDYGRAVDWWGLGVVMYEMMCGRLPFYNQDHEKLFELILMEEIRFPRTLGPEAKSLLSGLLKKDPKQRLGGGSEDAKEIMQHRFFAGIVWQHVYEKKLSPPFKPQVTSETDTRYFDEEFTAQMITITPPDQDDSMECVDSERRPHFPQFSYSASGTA
T3 sequence (P31749 whole entry E17K, the tested form may be a part): as the sequence (P31749 whole entry, the tested form may be a part) above, with E17K counted along it
T1 sequence (P31751 whole entry, the tested form may be a part): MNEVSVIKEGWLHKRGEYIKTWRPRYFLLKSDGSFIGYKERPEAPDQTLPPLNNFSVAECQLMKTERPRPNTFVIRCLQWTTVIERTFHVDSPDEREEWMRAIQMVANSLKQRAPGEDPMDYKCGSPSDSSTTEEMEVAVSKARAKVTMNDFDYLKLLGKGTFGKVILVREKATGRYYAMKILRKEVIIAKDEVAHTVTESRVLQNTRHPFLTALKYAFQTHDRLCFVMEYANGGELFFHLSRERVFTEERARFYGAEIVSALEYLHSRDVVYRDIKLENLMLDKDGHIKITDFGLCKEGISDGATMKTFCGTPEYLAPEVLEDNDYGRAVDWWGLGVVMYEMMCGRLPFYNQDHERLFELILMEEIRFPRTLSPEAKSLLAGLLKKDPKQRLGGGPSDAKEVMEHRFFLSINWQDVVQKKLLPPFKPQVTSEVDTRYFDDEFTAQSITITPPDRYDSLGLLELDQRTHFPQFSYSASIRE

| IC50 (AKT2) [nM] | IC50 (AKT1 WT) [nM] | IC50 ([1]; Homo sapiens, LAPC4, 72 h) [nM] | IC50 (AKT1 E17K) [nM] | IC50 ([1]; 72 h) [nM] | SMILES |
| --- | --- | --- | --- | --- | --- |
| 865 | 46 | 1390 | 546 |  | C=CC(=O)N1CCC(N[C@H]2CCc3cc(-n4c(-c5cccnc5N)nc5ccc(C6CC6)nc54)ccc32)CC1 [Example 85, (S)-1-(4-((5-(2-(2-aminopyridin-3-yl)-5-cyclopropyl-3H-imidazo[4,5-b]pyridin-3-yl)-2,3-dihydro-1H-inden-1-yl)amino)piperidin-1-yl)prop-2-en-1-one] |
| 23.8 | 95.1 | 54.9 | 7.44 |  | C=CC(=O)N1CCC(N[C@H]2CCc3cc(-n4c(-c5cccnc5N)nc5ccc(-n6ccc(OC7CC7)n6)nc54)ccc32)CC1 [Example 314, 1-(4-{[(1S)-5-[2-(2-aminopyridin-3-yl)-5-(3-cyclopropoxypyrazol-1-yl)imidazo[4,5-b]pyridin-3-yl]-2,3-dihydro-1H-inden-1-yl]amino}piperidin-1-yl)prop-2-en-1-one] |
| 348 | 17.6 | 161 | 95.1 |  | C=CC(=O)N1CCC(N[C@H]2CCc3cc(-n4c(-c5cccnc5N)nc5ccc(C)nc54)ccc32)CC1 [Example 50, (S)-1-(4-((5-(2-(2-aminopyridin-3-yl)-5-methyl-3H-imidazo[4,5-b]pyridin-3-yl)-2,3-dihydro-1H-inden-1-yl)amino)piperidin-1-yl)prop-2-en-1-one] |

Further lines, the molecule ahead of its results:

| SMILES | IC50 (AKT2) [nM] | IC50 (AKT1 WT) [nM] | IC50 ([1]; Homo sapiens, LAPC4, 72 h) [nM] | IC50 (AKT1 E17K) [nM] | IC50 ([1]; 72 h) [nM] |
| --- | --- | --- | --- | --- | --- |
| C=CC(=O)N1CCC(N[C@@H]2c3ccc(-n4c(-c5cccnc5N)nc5ccc(-n6ccc(F)n6)nc54)cc3CC2F)C[C@H]1C (single isomer, unassigned) [Example 274, 1-((2R,4*)-4-(((1R,2*)-5-(2-(2-aminopyridin-3-yl)-5-(3-fluoro-1H-pyrazol-1-yl)-3H-imidazo[4,5-b]pyridin-3-yl)-2-fluoro-2,3-dihydro-1H-inden-1-yl)amino)-2-methylpiperidin-1-yl)prop-2-en-1-one] | 94.4 | 696 |  | 18.8 | 323 |
| C=CC(=O)N1CCC(N[C@H]2CC(O)c3cc(-n4c(-c5cccnc5N)nc5ccc(-n6cccn6)nc54)ccc32)CC1 (single isomer, unassigned) [Example 218, 1-(4-(((1S,3*)-5-(2-(2-aminopyridin-3-yl)-5-(1H-pyrazol-1-yl)-3H-imidazo[4,5-b]pyridin-3-yl)-3-hydroxy-2,3-dihydro-1H-inden-1-yl)amino)piperidin-1-yl)prop-2-en-1-one] | 140 | 365 |  | 52.3 | 226 |
| C=C(F)C(=O)NCc1ccccc1C(=O)N[C@H]1CCc2cc(-n3c(-c4cccnc4N)nc4ccc(-n5cccn5)nc43)ccc21 [Example 264, N-[(1S)-5-[2-(2-aminopyridin-3-yl)-5-(pyrazol-1-yl)imidazo[4,5-b]pyridin-3-yl]-2,3-dihydro-1H-inden-1-yl]-2-[(2-fluoroprop-2-enamido)methyl]benzamide] | 171 | 937 | 1330 | 27.8 |  |
| C=CC(=O)N1CCC[C@@H]1C(=O)N[C@H]1CCc2cc(-n3c(-c4cccnc4N)nc4ccc(-n5cccn5)nc43)ccc21 [Example 25] | > 10000 | > 1000 | > 10000 | > 1000 |  |
| N#CN1CCC(N[C@H]2CCc3cc(-n4c(-c5cccnc5N)nc5ccc(-n6cccn6)nc54)ccc32)CC1 [Example 51, 4-{[(1S)-5-[2-(2-aminopyridin-3-yl)-5-(pyrazol-1-yl)imidazo[4,5-b]pyridin-3-yl]-2,3-dihydro-1H-inden-1-yl]amino}piperidine-1-carbonitrile] | 5560 | 115 | 1460 | 727 |  |
| C=CC(=O)N1CCC(N[C@H]2CCc3cc(-n4c(-c5cccnc5N)nc5ccc(C6CC6)nc54)ccc32)C(F)C1 (mixture of isomers) [Example 175, 1-(4-(((S)-5-(2-(2-aminopyridin-3-yl)-5-cyclopropyl-3H-imidazo[4,5-b]pyridin-3-yl)-2,3-dihydro-1H-inden-1-yl)amino)-3-fluoropiperidin-1-yl)prop-2-en-1-one] | 123 | 820 | 271 | 17.9 |  |

— patent US12570655B2, “Cysteine covalent modifiers of AKT1 and uses thereof” (Terremoto Biosciences, Inc., priority 2023, dated 2026)
